# Experimental data taken from patent publication US10428055B2, “Substituted piperidines having GPR119 agonistic activity” (DONG-A ST CO., LTD., priority 2014, dated 2019).
# Molecular target: T1, Human GPR119 (Homo sapiens, UniProt Q8TDV5)
# T1 construct: host or cells: HEK293 (ATCC)
# T1 sequence (Q8TDV5 1-335): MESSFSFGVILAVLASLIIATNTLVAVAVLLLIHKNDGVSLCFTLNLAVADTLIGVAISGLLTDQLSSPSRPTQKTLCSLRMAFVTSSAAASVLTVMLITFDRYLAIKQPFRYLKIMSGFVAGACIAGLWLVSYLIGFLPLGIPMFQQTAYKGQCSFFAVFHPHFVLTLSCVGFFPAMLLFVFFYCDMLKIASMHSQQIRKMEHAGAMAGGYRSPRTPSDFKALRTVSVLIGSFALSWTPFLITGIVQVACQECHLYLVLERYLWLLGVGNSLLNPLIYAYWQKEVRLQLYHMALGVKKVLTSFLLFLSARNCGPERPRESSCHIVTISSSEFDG
# Assay: Human GPR119 activation assay (cAMP, HTRF)
# Format: cell-based
# Conditions: 1 h, HEK293 cells transiently expressing human GPR119, relative to maximum effect of OEA, read-out: hGPR119 activation ability (cAMP assay) Relative Response % vs OEA; for Emax at 0.001 µM: 1 nM; for Emax at 0.01 µM: 10 nM
# Excerpt: <Experimental Example 1>Human GPR119 activation assay
# Human GPR119 was temporarily expressed on cells, thereby quantifying the amount of cyclic adenosine 3′,5′-monophosphate (cAMP) increased upon activating GPR119 by the compound of the present invention, using the product from Cysbio, by a method of HTRF (homogeneous time resolved fluorescence), and such quantification was used to refer to efficacy on GPR119 activation.
# Human GPR119 expression vector (Origene) was overexpressed in […] renal epithelial cells (HEK293) (ATCC), and the cells were stabilized for 48 hours. With a solution of 11.1 mM glucose, 0.1% bovine serum albumin, and 0.5 mM IBMX (3-isobutyl-1-methylxanthine) which is a phosphodiesterase inhibitor being added to a KRBH (Krebs-Ringer Bicarbonate HEPES; Hou ZQ. et al., Mol Cell Endocrinol, 2008(291):71-78) buffer, the cells were pre-treated for 10 minutes. Thereafter, the cells were treated with the same solution containing a drug for 60 minutes, then the supernatant was removed, and the increase in cAMP in cells was quantified using a Cysbio cAMP HiRange kit.
# As to the maximum efficacy of compounds tested, multiple concentration assessment for the compounds of the present invention was carried out, thereby assessing the relative activation level (%) to the maximum effect of oleoylethanolamide (OEA), an endogenous ligand of GPR119.
SMILES,Emax at 0.001 µM [%],Emax at 0.01 µM [%]
"Cc1nc(-c2c(F)cc(OCCCC3CCN(c4nc(C(C)C)no4)CC3)cc2F)no1 [Example 39, 3-(2,6-difluoro-4-(3-(1-(3-isopropyl-1,2,4-oxadiazol-5-yl)piperidin-4-yl)propoxy)phenyl)-5-methyl-1,2,4-oxadiazole]",120,201
"CC(C)c1noc(N2CCC(CCCOc3cc(F)c(-c4noc(CO)n4)c(F)c3)CC2)n1 [Example 41, (3-(2,6-difluoro-4-(3-(1-(3-isopropyl-1,2,4-oxadiazol-5-yl)piperidin-4-yl)propoxy)phenyl)-1,2,4-oxadiazol-5-yl)methanol]",74.4,203
"CCc1cnc(N2CCC(CCCOc3cc(F)c(-c4nnc(C(C)C)o4)c(F)c3)CC2)nc1 [Example 44, 2-(4-(3-(1-(5-ethylpyrimidin-2-yl)piperidin-4-yl)propoxy)-2,6-difluorophenyl)-5-isopropyl-1,3,4-oxadiazole]",493,830
"CCc1cnc(N2CCC(CCCOc3cc(F)c(-c4nnc(NC(C)C)o4)c(F)c3)CC2)nc1 [Example 45, 5-(4-(3-(1-(5-ethylpyrimidin-2-yl)piperidin-4-yl)propoxy)-2,6-difluorophenyl)-N-isopropyl-1,3,4-oxadiazol-2-amine]",156,330
"CC(C)c1nnc(-c2c(F)cc(OCCCC3CCN(c4ncc(C(F)(F)F)cn4)CC3)cc2F)o1 [Example 48, 2-(2,6-difluoro-4-(3-(1-(5-(trifluoromethyl)pyrimidin-2-yl)piperidin-4-yl)propoxy)phenyl)-5-isopropyl-1,3,4-oxadiazole]",163,441
"Cc1nnc(-c2c(F)cc(OCCCC3CCN(c4cnc(Cl)cn4)CC3)cc2F)o1 [Example 49, 2-(4-(3-(1-(5-chloropyrazin-2-yl)piperidin-4-yl)propoxy)-2,6-difluorophenyl)-5-methyl-1,3,4-oxadiazole]",83.4,121
"CCc1nnc(-c2c(F)cc(OCCCC3CCN(c4cnc(Cl)cn4)CC3)cc2F)o1 [Example 50, 2-(4-(3-(1-(5-chloropyrazin-2-yl)piperidin-4-yl)propoxy)-2,6-difluorophenyl)-5-ethyl-1,3,4-oxadiazole]",120,308
"CCCc1noc(N2CCC(CCCOc3cc(F)c(-c4nnc(C)o4)c(F)c3)CC2)n1 [Example 52, 5-(4-(3-(3,5-difluoro-4-(5-methyl-1,3,4-oxadiazol-2-yl)phenoxy)propyl)piperidin-1-yl)-3-propyl-1,2,4-oxadiazole]",191,295
"CCCc1noc(N2CCC(CCCOc3cc(F)c(-c4nnc(CC)o4)c(F)c3)CC2)n1 [Example 53, 5-(4-(3-(3,5-difluoro-4-(5-ethyl-1,3,4-oxadiazol-2-yl)phenoxy)propyl)piperidin-1-yl)-3-propyl-1,2,4-oxadiazole]",94.3,154
"CCCc1noc(N2CCC(CCCOc3cc(F)c(-c4nnc(C(C)C)o4)c(F)c3)CC2)n1 [Example 54, 5-(4-(3-(3,5-difluoro-4-(5-isopropyl-1,3,4-oxadiazol-2-yl)phenoxy)propyl)piperidin-1-yl)-3-propyl-1,2,4-oxadiazole]",75.1,241
"CCc1nnc(-c2c(F)cc(OCCCC3CCN(c4nc(C(C)C)no4)CC3)cc2F)o1 [Example 56, 5-(4-(3-(4-(5-ethyl-1,3,4-oxadiazol-2-yl)-3,5-difluorophenoxy)propyl)piperidin-1-yl)-3-isopropyl-1,2,4-oxadiazole]",265,373
"Cc1nnc(-c2c(F)cc(OCCCC3CCN(c4nc(CC(F)(F)F)no4)CC3)cc2F)o1 [Example 58, 5-(4-(3-(3,5-difluoro-4-(5-methyl-1,3,4-oxadiazol-2-yl)phenoxy)propyl)piperidin-1-yl)-3-(2,2,2-trifluoroethyl)-1,2,4-oxadiazole]",699,

# The remaining lines, values ahead:
Emax at 0.001 µM [%],Emax at 0.01 µM [%],SMILES
140,329,"CC(C)c1nc(N2CCC(CCCOc3cc(F)c(-c4nnc(C(C)C)o4)c(F)c3)CC2)no1 [Example 59, 3-(4-(3-(3,5-difluoro-4-(5-isopropyl-1,3,4-oxadiazol-2-yl)phenoxy)propyl)piperidin-1-yl)-5-isopropyl-1,2,4-oxadiazole]"
285,516,"CCc1cnc(N2CCC(CCCOc3cc(F)c(-c4nnc(C(C)C)s4)c(F)c3)CC2)nc1 [Example 60, 2-(4-(3-(1-(5-ethylpyrimidin-2-yl)piperidin-4-yl)propoxy)-2,6-difluorophenyl)-5-isopropyl-1,3,4-thiadiazole]"
98.1,186,"CCCc1cnc(N2CCC(CCCOc3cc(F)c(-c4nnc(C(C)C)s4)c(F)c3)CC2)nc1 [Example 61, 2-(2,6-difluoro-4-(3-(1-(5-propylpyrimidin-2-yl)piperidin-4-yl)propoxy)phenyl)-5-isopropyl-1,3,4-thiadiazole]"
88.8,169,"CCCCCc1cnc(N2CCC(CCCOc3cc(F)c(-c4nnc(C(C)C)s4)c(F)c3)CC2)nc1 [Example 62, 2-(2,6-difluoro-4-(3-(1-(5-pentylpyrimidin-2-yl)piperidin-4-yl)propoxy)phenyl)-5-isopropyl-1,3,4-thiadiazole]"
114,228,"CC(C)c1nnc(-c2c(F)cc(OCCCC3CCN(c4ncc(F)cn4)CC3)cc2F)s1 [Example 63, 2-(2,6-difluoro-4-(3-(1-(5-fluoropyrimidin-2-yl)piperidin-4-yl)propoxy)phenyl)-5-isopropyl-1,3,4-thiadiazole]"
77,179,"CC(C)c1nnc(-c2c(F)cc(OCCCC3CCN(c4ncc(C(F)(F)F)cn4)CC3)cc2F)s1 [Example 64, 2-(2,6-difluoro-4-(3-(1-(5-(trifluoromethyl)pyrimidin-2-yl)piperidin-4-yl)propoxy)phenyl)-5-isopropyl-1,3,4-thiadiazole]"
78.1,189,"CC(C)c1nnc(-c2c(F)cc(OCCCC3CCN(c4ccc(C(F)(F)F)cn4)CC3)cc2F)s1 [Example 65, 2-(2,6-difluoro-4-(3-(1-(5-(trifluoromethyl)pyridin-2-yl)piperidin-4-yl)propoxy)phenyl)-5-isopropyl-1,3,4-thiadiazole]"
95.6,120,"CCc1cnc(N2CCC(CCCOc3cc(F)c(-c4nc(CC)cs4)c(F)c3)CC2)nc1 [Example 66, 4-ethyl-2-(4-(3-(1-(5-ethylpyrimidin-2-yl)piperidin-4-yl)propoxy)-2,6-difluorophenyl) thiazole]"
